Results published in patent US8853394B2, “Pharmacokinetically improved compounds” (Surface Logix, Inc., priority 2006, dated 2014).
pIC50: −log10 of the molar value. In brackets after ≈: the same amount, converted by molar mass. Read-outs that look alike come from different tables or passages of the source.

Legend:
Protein Binding = type: in vitro ADME; settings: human, human serum components
Protocol: In general, protein binding is assessed by measuring the capacity of molecules of the invention to bind to one or more human serum components or mimics thereof. In one embodiment, suitable functional residues may be identified by screening of surfaces comprising such residues for their ability to resist adsorption of serum components, including, but not limited to serum proteins, and preferably human serum proteins. Candidate residues can be screened directly by attaching them to a solid support and testing the support for protein resistance. Alternatively, candidate residues are incorporated into, or linked to molecules of pharmaceutical interest. Such compounds may be synthesized on a solid support, or bound to a solid support after synthesis. In a non-limiting example of a direct binding assay, immobilized candidate functional residues or molecules incorporating such residues are tested for their ability to bind serum components. The serum components can be labeled with a signaling moiety for detection, or a labeled secondary reagent that binds to such serum components can be used.
A direct binding analysis can also be preformed in liquid phase. For example, test compounds can be mixed with one or more serum components in liquid phase, and the unbound molecules determined.

Non-Spec Binding = type: in vitro ADME
PDE-6 bovine = target: T1, PDE-6 bovine (Bos taurus, UniProt P11541+P23439); assay: PDE-6 bovine inhibition; type: biochemical
T1 sequence (P11541 2-856 limits assumed): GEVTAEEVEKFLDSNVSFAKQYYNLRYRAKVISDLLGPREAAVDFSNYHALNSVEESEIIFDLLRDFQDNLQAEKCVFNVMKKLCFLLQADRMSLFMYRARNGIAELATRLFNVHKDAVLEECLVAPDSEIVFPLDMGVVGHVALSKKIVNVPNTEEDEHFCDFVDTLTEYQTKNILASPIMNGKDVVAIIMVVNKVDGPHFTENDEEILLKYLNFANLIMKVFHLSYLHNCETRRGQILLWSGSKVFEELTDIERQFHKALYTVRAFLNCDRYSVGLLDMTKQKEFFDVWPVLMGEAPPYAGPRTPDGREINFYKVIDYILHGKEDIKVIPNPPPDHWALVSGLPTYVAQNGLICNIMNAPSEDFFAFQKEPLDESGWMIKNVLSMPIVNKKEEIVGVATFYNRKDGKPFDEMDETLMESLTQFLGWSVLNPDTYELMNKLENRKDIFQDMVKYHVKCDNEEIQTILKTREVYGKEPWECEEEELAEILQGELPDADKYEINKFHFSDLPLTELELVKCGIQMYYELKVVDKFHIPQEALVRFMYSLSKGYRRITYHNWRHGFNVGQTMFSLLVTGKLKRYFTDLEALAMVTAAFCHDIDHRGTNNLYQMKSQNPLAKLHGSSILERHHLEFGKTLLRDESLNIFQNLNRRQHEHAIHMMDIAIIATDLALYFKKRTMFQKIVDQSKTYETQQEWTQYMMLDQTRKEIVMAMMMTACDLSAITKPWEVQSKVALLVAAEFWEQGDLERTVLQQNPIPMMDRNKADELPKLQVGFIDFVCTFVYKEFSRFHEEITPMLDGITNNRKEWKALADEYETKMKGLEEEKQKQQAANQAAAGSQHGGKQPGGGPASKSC
T1 sequence (P23439 2-850 limits assumed): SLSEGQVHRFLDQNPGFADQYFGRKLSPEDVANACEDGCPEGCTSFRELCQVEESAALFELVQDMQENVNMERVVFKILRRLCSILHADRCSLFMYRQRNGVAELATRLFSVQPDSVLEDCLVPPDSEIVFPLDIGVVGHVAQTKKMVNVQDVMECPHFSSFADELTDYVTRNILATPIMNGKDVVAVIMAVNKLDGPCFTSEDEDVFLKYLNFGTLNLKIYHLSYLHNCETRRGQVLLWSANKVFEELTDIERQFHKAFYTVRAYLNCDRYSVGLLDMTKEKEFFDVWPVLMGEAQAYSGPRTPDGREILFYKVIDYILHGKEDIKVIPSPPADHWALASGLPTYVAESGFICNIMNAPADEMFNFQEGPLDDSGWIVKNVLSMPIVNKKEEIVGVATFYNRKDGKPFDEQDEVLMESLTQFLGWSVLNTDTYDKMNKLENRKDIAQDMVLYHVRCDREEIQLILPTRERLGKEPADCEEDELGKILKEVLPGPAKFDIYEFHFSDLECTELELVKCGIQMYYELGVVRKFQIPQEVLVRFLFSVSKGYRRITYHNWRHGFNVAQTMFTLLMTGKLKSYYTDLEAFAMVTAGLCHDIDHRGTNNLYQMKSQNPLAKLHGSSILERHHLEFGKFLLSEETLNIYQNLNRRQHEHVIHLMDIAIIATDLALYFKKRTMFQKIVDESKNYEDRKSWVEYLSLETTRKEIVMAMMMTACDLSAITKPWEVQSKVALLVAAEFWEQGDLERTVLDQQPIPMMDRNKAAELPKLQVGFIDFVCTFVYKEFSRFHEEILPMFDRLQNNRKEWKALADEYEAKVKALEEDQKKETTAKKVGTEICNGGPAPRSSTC

PDE-4 human = PDE-4 human inhibition; type: biochemical
Caco-2 permeability = type: in vitro ADME; settings: human; for Papp A→B: AtoB; for Papp B→A: BtoA
Description: Several model systems are available, employing monolayers of various cell types, for evaluation of active transport of pharmaceutically active substances. For example, monolayers of Caco-2 intestinal epithelial cells can be used to evaluate active transport of substances between the intestine and the bloodstream. When plated on a surface which allows the flow of material from apical to basolateral and vice versa, such cells form a biological membrane which can be used to simulate physiological absorption and bioavailability. In another example, mouse brain capillary endothelial cell (MBEC) lines have been established to evaluate active transport in and out of the central nervous system. Another example of such cells is HT29 human colon carcinoma cells. Further, monolayers expressing particular transporter proteins can be established using transfected cells. For example, Sasaki et al (2002) J. Biol. Chem. 8:6497 used a double-transfected Madin-Darby canine kidney cell monolayer to study transport of organic anions.

PDE-1 = PDE-1 inhibition; type: biochemical
PDE-3 = PDE-3 inhibition; type: biochemical
PDE5 = PDE5 (Homo sapiens, UniProt O76074); assay: PDE-5 human inhibition; type: biochemical
[1] = T1/2 in rat liver microsomes; type: in vitro ADME
[2] = T1/2 in human liver microsomes; type: in vitro ADME
PAMPA permeability = type: in vitro ADME
[3] = Chronic Cytoxicity (mouse 3T3); type: cell-based; settings: 3T3 cells
Solubility = type: physicochemical
[4] = pH 2.7, aqueous buffer, read-out: Solubility (ug/mL) pH 2.7
[5] = pH 7.4, aqueous buffer, read-out: Solubility (ug/mL) pH 7.4

SMILES	fraction unbound (Protein Binding)	Non-Spec Binding (%) (Non-Spec Binding)	pIC50 (PDE-6 bovine)	pIC50 (PDE-4 human)	Papp A→B (Caco-2 permeability)	Papp B→A (Caco-2 permeability)	pIC50 (PDE-1)	pIC50 (PDE-3)	pIC50 (PDE5)	half-life [1]	half-life [2]	Papp (PAMPA permeability; Hex, read-out: PAMPA Hex)	GI50 [3]	LC50 (50% lethal concentration) [3]	Papp (PAMPA permeability; Lec, read-out: PAMPA Lec)	solubility (Solubility; [4])	solubility (Solubility; [5])
CCCc1nc(C)c2c(=O)[nH]c(-c3cc(S(=O)(=O)N(C)CC(OC)OC)ccc3OCC)nn12 [Compound 17]	0.016	36.5%	9.07	5.96	40.5 ×10⁻⁶ cm/s	39.4 ×10⁻⁶ cm/s	8.59	6.41	10.18	6.83 min	1.08 min	–	–	–	–	–	–
CCCc1nc(C)c2c(=O)[nH]c(-c3cc(S(=O)(=O)NCCCN4CCCC4=O)ccc3OCC)nn12 [Compound 13]	0.0885	5.95%	9.19	6.43	10.6 ×10⁻⁶ cm/s	36.7 ×10⁻⁶ cm/s	8.46	6.11	10.29	16.6 min	12.7 min	–	–	–	–	–	–
CCCNS(=O)(=O)c1ccc(OCC)c(-c2nn3c(CCC)nc(C)c3c(=O)[nH]2)c1 [Compound 23]	–	–	9.21	5.64	–	–	7.82	5.43	9.72	–	–	–	–	–	–	–	–
CCCc1nc(C)c2c(=O)[nH]c(-c3cc(S(=O)(=O)N(C)C)ccc3OCC)nn12 [Compound 8]	0.024	44.2%	8.30	–	45.4 ×10⁻⁶ cm/s	47.4 ×10⁻⁶ cm/s	7.51	5.92	9.00	–	–	68.9 ×10⁻⁶ cm/s	–	–	–	–	–
CCCc1nc(C)c2c(=O)[nH]c(-c3cc(S(=O)(=O)N(CCOCC)CCOCC)ccc3OCC)nn12 [Compound 10]	0.012	89.9%	8.59	–	–	–	7.92	6.26	9.47	–	–	49 ×10⁻⁶ cm/s	–	–	–	–	–
CCCc1nc(C)c2c(=O)[nH]c(-c3cc(S(=O)(=O)N(C)C[C@H](COC)OC)ccc3OCC)nn12 [Compound 7]	0.018	25.5%	8.54	–	48.6 ×10⁻⁶ cm/s	57.4 ×10⁻⁶ cm/s	7.83	6.11	9.45	–	–	76.1 ×10⁻⁶ cm/s	–	–	–	–	–
CCCc1nc(C)c2c(=O)[nH]c(-c3cc(S(=O)(=O)N(C)CC(=O)O)ccc3OCC)nn12 [Compound 12]	0.025	0.8%	9.32	5.30	2.2 ×10⁻⁶ cm/s	5.5 ×10⁻⁶ cm/s	7.62	5.89	10.00	–	–	–	–	–	–	–	–
CCCc1nc(C)c2c(=O)[nH]c(-c3cc(S(=O)(=O)N(C)CC(=O)N(C)OC)ccc3OCC)nn12 [Compound 14]	0.024	9.9%	8.54	5.81	20.6 ×10⁻⁶ cm/s	48.8 ×10⁻⁶ cm/s	7.92	6.19	9.98	–	–	–	–	–	–	–	–
CCCc1nc(C)c2c(=O)[nH]c(-c3cc(S(=O)(=O)N(C)CCNC)ccc3OCC)nn12 [Compound 2]	–	–	7.79	–	1.48 ×10⁻⁶ cm/s	9.88 ×10⁻⁶ cm/s	7.09	5.71	9.19	–	–	1.17 ×10⁻⁶ cm/s	> 75000 nM	> 75000 nM	1.47 ×10⁻⁶ cm/s	> 50 µg/mL	> 50 µg/mL
CCCc1nc(C)c2c(=O)[nH]c(-c3cc(S(=O)(=O)N(C)C(C)(C)C)ccc3OCC)nn12 [Compound 3]	–	–	8.43	–	50.8 ×10⁻⁶ cm/s	50.4 ×10⁻⁶ cm/s	7.92	6.49	9.97	–	–	53.9 ×10⁻⁶ cm/s	> 50000 nM	> 100000 nM	–	90.2 µg/mL (≈ 195 µM)	15 µg/mL (≈ 32.5 µM)
CCCc1nc(C)c2c(=O)[nH]c(-c3cc(S(=O)(=O)N(CCO)CCO)ccc3OCC)nn12 [Compound 6]	–	–	7.77	–	4.3 ×10⁻⁶ cm/s	28.1 ×10⁻⁶ cm/s	7.59	5.82	9.28	–	–	~0.08 ×10⁻⁶ cm/s	–	–	–	–	–
CCCc1nc(C)c2c(=O)[nH]c(-c3cc(S(=O)(=O)N(C)CCN4CCCC4=O)ccc3OCC)nn12 [Compound 20]	0.037	7.4%	9.20	6.03	–	–	7.94	5.93	9.87	–	–	–	–	–	–	93.3 µg/mL (≈ 181 µM)	90.9 µg/mL (≈ 176 µM)
CCCc1nc(C)c2c(=O)[nH]c(-c3cc(S(=O)(=O)NCCO)ccc3OCC)nn12 [Compound 4]	–	–	8.25	–	–	–	7.73	5.69	8.97	–	–	~0.0062 ×10⁻⁶ cm/s	~50000 nM	> 100000 nM	0.0019 ×10⁻⁶ cm/s	–	–
CCCc1nc(C)c2c(=O)[nH]c(-c3cc(S(=O)(=O)N4CCC[C@H]4CN4CCCC4)ccc3OCC)nn12.Cl [Compound 11]	–	–	7.64	–	6.87 ×10⁻⁶ cm/s	30.5 ×10⁻⁶ cm/s	7.32	5.68	9.00	–	–	3.86 ×10⁻⁶ cm/s	25000 nM	> 100000 nM	–	> 50 µg/mL	> 50 µg/mL
CCCc1nc(C)c2c(=O)[nH]c(-c3cc(S(=O)(=O)N4CCN(CC(=O)N5CCOCC5)CC4)ccc3OCC)nn12 [Compound 22]	0.116	0.8%	9.04	5.53	–	–	7.73	6.29	10.30	–	–	–	–	–	–	–	–
